In article PMC2912414 (Biochemistry, 2010):

Target: T1, HpxJ (Klebsiella michiganensis, UniProt B5B0L4)
T1 sequence (B5B0L4 1-413): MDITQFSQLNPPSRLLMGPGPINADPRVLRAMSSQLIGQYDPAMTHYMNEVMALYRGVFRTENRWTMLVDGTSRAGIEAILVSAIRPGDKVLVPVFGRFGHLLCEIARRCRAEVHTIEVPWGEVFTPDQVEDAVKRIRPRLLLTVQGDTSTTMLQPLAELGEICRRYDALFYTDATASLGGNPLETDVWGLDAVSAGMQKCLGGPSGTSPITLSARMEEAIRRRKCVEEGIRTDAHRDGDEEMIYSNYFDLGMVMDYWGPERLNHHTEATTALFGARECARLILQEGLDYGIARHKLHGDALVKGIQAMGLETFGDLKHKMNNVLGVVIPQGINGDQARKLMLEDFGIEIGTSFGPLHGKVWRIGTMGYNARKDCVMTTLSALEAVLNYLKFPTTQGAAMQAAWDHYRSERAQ
Experiment: pre-steady-state PLP to PMP conversion
Format: biochemical
Conditions: amino donor; glyoxylate as acceptor in HPLC assay

N[C@@H](CC(=O)O)C(=O)O [aspartate]
rate of first half reaction: an order of magnitude faster than the next fastest substrate, aspartate
